Experimental data as given in patent US7608617B2, “Naphthaline derivatives as H3 inverse agonists” (Hoffmann-La Roche Inc., priority 2004, dated 2009).
pKi: −log10 of the molar value. Structures can show the parent of a compound that is named as a salt.

molecular target: T1, histamine 3 receptor (H3R) (Homo sapiens, UniProt Q9Y5N1); test: Binding assay with 3H-(R)α-methylhistamine (competition binding, membranes of the human HR3-CHO cell line); settings: competition with 3H(R)α-Methylhistamine 1 nM, Ki calculated from IC50 by Cheng-Prusoff equation
T1 construct: expressed in transfected cells; host or cells: CHO cells (HR3-CHO cell line), membranes
Procedure: Binding assay with ^3H—(R)α-methylhistamine
Saturation binding experiments were performed using HR3—CHO membranes prepared as described in Takahashi, K, Tokita, S., Kotani, H. (2003) J. Pharmacol. Exp. Therapeutics 307, 213-218.
An appropriate amount of membrane (60 to 80 μg protein/well) was incubated with increasing concentrations of ^3H(R)α-Methylhistamine di-hydrochloride (0.10 to 10 nM). Non specific binding was determined using a 200 fold excess of cold (R)α-Methylhistamine dihydrobromide (500 nM final concentration). The incubation was carried out at room temperature (in deep-well plates shaking for three hours). The final volume in each well was 250 μl. The incubation was followed by rapid filtration on GF/B filters (pre-soaked with 100 μl of 0.5% PEI in Tris 50 mM shaking at 200 rpm for two hours). The filtration was made using a cell-harvester and the filter plates were then washed five times with ice cold washing buffer containing 0.5 M NaCl. After harvesting, the plates were dried at 55° C. for 60 min, then we added scintillation fluid (Microscint 40, 40 microl in each well) and the amount of radioactivity on the filter was determined in Packard top-counter after shaking the plates for two hours at 200 rpm at room temperature.
Binding Buffer: 50 mM Tris-HCl pH 7.4 and 5 mM MgCl2x 6H2O pH 7.4. Washing Buffer: 50 mM Tris-HCl pH 7.4 and 5 mM MgCl2×6H2O and 0.5 M NaCl pH 7.4:
Indirect measurement of affinity of H3R inverse agonists: twelve increasing concentrations (ranging from […] to 0.3 nM) of the selected compounds were always tested in competition binding experiments using membrane of the human HR3-CHO cell line. An appropriate amount of protein, e.g. approximately 500 cpm binding of RAMH at Kd, were incubated for 1 hour at room temperature in 250 μl final volume in 96-well plates in presence of ^3H(R)α-Methylhistamine (1 nM final concentration=Kd). […]
All compounds were tested at a single concentration in duplicates. […] Ki's were calculated from IC50 based on Cheng-Prusoff equation (Cheng, Y, Prusoff, W H (1973) Biochem Pharmacol 22, 3099-3108).

T1 sequence (Q9Y5N1 whole entry): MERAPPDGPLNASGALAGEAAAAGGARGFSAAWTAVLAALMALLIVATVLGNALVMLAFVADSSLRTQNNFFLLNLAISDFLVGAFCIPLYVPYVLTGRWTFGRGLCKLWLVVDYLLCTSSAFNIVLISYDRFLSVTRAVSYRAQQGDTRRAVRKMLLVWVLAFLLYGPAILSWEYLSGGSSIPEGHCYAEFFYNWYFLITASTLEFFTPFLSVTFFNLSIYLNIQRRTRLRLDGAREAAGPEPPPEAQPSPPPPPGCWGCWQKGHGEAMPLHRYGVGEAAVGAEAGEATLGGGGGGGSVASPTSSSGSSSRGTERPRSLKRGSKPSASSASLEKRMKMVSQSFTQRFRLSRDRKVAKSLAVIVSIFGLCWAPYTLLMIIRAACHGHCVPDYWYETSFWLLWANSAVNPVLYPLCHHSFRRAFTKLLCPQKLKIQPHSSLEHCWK

SMILES | pKi
O=C(c1ccc2cc(OCCCN3CCCCC3)ccc2c1)N1CCCCC1 [Example 1, piperidin-1-yl-[6-(3-piperidin-1-yl-propoxy)-naphthalen-2-yl]-methanone 1:1 hydrochloride] | 7.59
CC1CCCCN1CCCOc1ccc2cc(C(=O)N(C)Cc3ccccc3)ccc2c1 (stereo not drawn) [Example 13, 6-[3-(2-methyl-piperidin-1-yl)-propoxy]-naphthalene-2-carboxylic acid benzyl-methyl-amide 1:1 hydrochloride] | 6.95
CC1CCN(C(=O)c2ccc3cc(OCCC4CCCN4C)ccc3c2)CC1 (stereo not drawn) [Example 31, (4-methyl-piperidin-1-yl)-{6-[2-(1-methyl-pyrrolidin-2-yl)-ethoxy]-naphthalen-2-yl}-methanone 1:1 hydrochloride] | 6.24
